Consider 25 compounds from US11793815B2, “Oxindoles and methods of use thereof” (ALIGOS THERAPEUTICS, INC., priority 2020, dated 2023).

This test has as its target T1, human thyroid receptor beta ligand-binding domain (LBD) (Homo sapiens, UniProt P10828).
T1 construct: Thyroid receptor beta LBD was added to the plate at a final concentration of 1 nM; purchased Invitrogen
T1 sequence (P10828 217-461 limits assumed): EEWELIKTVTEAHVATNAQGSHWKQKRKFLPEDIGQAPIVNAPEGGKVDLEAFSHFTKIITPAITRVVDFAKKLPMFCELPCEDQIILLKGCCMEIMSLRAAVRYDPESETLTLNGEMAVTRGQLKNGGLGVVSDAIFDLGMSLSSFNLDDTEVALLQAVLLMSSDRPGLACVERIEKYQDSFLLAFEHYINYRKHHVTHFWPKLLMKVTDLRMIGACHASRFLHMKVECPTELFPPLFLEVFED
The experiment in a line: THR Biochemical Assay (Assay 1): TR-FRET thyroid receptor beta coactivator assay. As to conditions: GST-tagged thyroid receptor beta LBD 1 nM, fluorescein SRC2-2 coactivator peptide 200 nM, 1 hr at rt, TR-FRET ratio 520:495; read-out: Assay 1 (EC50, THR-beta agonist). The source says:
THR Biochemical Assay (Assay 1)
The TR-FRET thyroid receptor beta coactivator assay was used with slight, optimized modifications of the manufacturer's protocol (Invitrogen). The assay uses a terbium-labeled anti-GST antibody, a glutathione-S-transferase (GST) tagged human thyroid receptor, beta or alpha, ligand-binding domain (LBD), and a fluorescein labeled SRC2-2 coactivator peptide. The antibody interacts with the LBD, where the agonist also binds, resulting in increased affinity for the SRC2-2 coactivator peptide causing energy transfer […] the acceptor fluorophore and a FRET emission shift from 495 to 520 nm. The energy transfer was detected as an increase in the fluorescence emission of the fluorescein acceptor, and a decrease in the fluorescence emission of the terbium donor. The assay was performed in a 384-well black plate in a final volume of 20 μL. Serial dilution of various test agonists was performed in DMSO (1% final DMSO concentration) and added to the test plate. Thyroid receptor beta LBD was added to the plate at a final concentration of 1 nM, followed by the mixture of the fluorescein labeled SRC2-2 coactivator peptide, and the terbium-labeled anti-GST antibody at final concentrations of 200 nM and 2 nM respectively. The assay was incubated for 1 hr at rt protected from light. The TR-FRET was then measured on a Victor multilabel reader (Perkin Elmer) using an excitation wavelength of 340 nm with emission filters of 495 nm and 520 nm. The assay was quantified by expressing a ratio (520:495) of the intensities, and the resulting activation curves; EC50 values were generated using a sigmoidal dose response (variable slope) equation in GraphPad™ Prism 8.0.
On the technique in general: TR-FRET usually uses a lanthanide donor and a delayed reading to cut background.
A word on the EC50: it is the concentration that produces a half-maximal response. On to `CC1CC12C(=O)Nc1ccc(Oc3c(Cl)cc(-n4nc(N)c(=O)[nH]c4=O)cc3Cl)cc12` (single isomer, unassigned) [Compound 32, 6-amino-2-(3,5-dichloro-4-((2-methyl-2′-oxospiro[cyclopropane-1,3′-indolin]-5′-yl)oxy)phenyl)-1,2,4-triazine-3,5(2H,4H)-dione], for which the concentration for a half-maximal effect (EC50) is < 50 nM.
The value for `CC1CC12C(=O)Nc1ccc(Oc3c(Cl)cc(NC(=O)C(=O)O)cc3Cl)cc12` (single isomer, unassigned) [Compound 34, 2-((3,5-dichloro-4-((2-methyl-2′-oxospiro[cyclopropane-1,3′-indolin]-5′-yl)oxy)phenyl)amino)-2-oxoacetic acid] was < 50 nM.
Then `CC1CC12C(=O)Nc1ccc(Oc3c(Cl)cc(NC(=O)C(=O)O)cc3Cl)cc12` (single isomer, unassigned) [Compound 35, 2-((3,5-dichloro-4-((2-methyl-2′-oxospiro[cyclopropane-1,3′-indolin]-5′-yl)oxy)phenyl)amino)-2-oxoacetic acid], with < 50 nM.
For `Cc1cc(OCC(=O)O)c(C)c(C)c1Cc1ccc2c(n1)C(C)(C)C(=O)N2` [Compound 1, 4-([3,3-dimethyl-2-oxo-1H-pyrrolo[3,2-b]pyridin-5-yl]methyl)-2,3,5-trimethylphenoxyacetic acid], the 50% effective concentration (EC50) was 50 to 250 nM.
Then `Cc1cc(-n2nc(C#N)c(=O)[nH]c2=O)cc(C)c1Oc1ccc2c(c1)C1(CC1)C(=O)N2` [Compound 2, 2-(3,5-dimethyl-4-((2′-oxospiro[cyclopropane-1,3′-indolin]-5′-yl)oxy)phenyl)-3,5-dioxo-2,3,4,5-tetrahydro-1,2,4-triazine-6-carbonitrile], with < 50 nM; and `Cc1cc(-n2nc(C#N)c(=O)[nH]c2=O)cc(C)c1Oc1ccc2c(c1)C1(CCC1)C(=O)N2` [Compound 3, 2-(3,5-dimethyl-4-((2′-oxospiro[cyclobutane-1,3′-indolin]-5′-yl)oxy)phenyl)-3,5-dioxo-2,3,4,5-tetrahydro-1,2,4-triazine-6-carbonitrile], with < 50 nM.
As for `Cc1cc(-n2nc(N)c(=O)[nH]c2=O)cc(C)c1Cc1ccc2c(c1)C1(CCC1)C(=O)N2` [Compound 4, 6-amino-2-(3,5-dimethyl-4-{2′-oxo-1′H-spiro[cyclobutane-1,3′-indol]-5′-ylmethyl}phenyl)-4H-1,2,4-triazine-3,5-dione], the EC50 is < 50 nM.
Then `O=C1Nc2ccc(Oc3c(Cl)cc(-n4ncc(=O)[nH]c4=O)cc3Cl)cc2C12CCC2` [Compound 5, 2-(3,5-dichloro-4-((2′-oxospiro[cyclobutane-1,3′-indolin]-5′-yl)oxy)phenyl)-1,2,4-triazine-3,5(2H,4H)-dione], with < 50 nM.
The value for `Nc1nn(-c2cc(Cl)c(Oc3ccc4c(c3)C3(CCC3)C(=O)N4)c(Cl)c2)c(=O)[nH]c1=O` [Compound 6, 6-amino-2-(3,5-dichloro-4-((2′-oxospiro[cyclobutane-1,3′-indolin]-5′-yl)oxy)phenyl)-1,2,4-triazine-3,5(2H,4H)-dione] was < 50 nM; that for `Cc1cc(-n2nc(C#N)c(=O)[nH]c2=O)cc(C)c1Cc1ccc2c(c1)C1(CC(F)(F)C1)C(=O)N2` [Compound 7, 2-(4-((3,3-difluoro-2′-oxospiro[cyclobutane-1,3′-indolin]-5′-yl)methyl)-3,5-dimethylphenyl)-3,5-dioxo-2,3,4,5-tetrahydro-1,2,4-triazine-6-carbonitrile] was > 25000 nM; that for `Cc1cc(-n2nc(N)c(=O)[nH]c2=O)cc(C)c1Cc1ccc2c(c1)C1(CC(F)(F)C1)C(=O)N2` [Compound 8, 6-amino-2-(4-{3,3-difluoro-2′-oxo-1′H-spiro[cyclobutane-1,3′-indol]-5′-ylmethyl}-3,5-dimethylphenyl)-4H-1,2,4-triazine-3,5-dione] was > 25000 nM.
Then `N#Cc1nn(-c2cc(Cl)c(Oc3ccc4c(c3)C3(CC(F)(F)C3)C(=O)N4)c(Cl)c2)c(=O)[nH]c1=O` [Compound 9, 2-(3,5-dichloro-4-((3,3-difluoro-2′-oxospiro[cyclobutane-1,3′-indolin]-5′-yl)oxy)phenyl)-3,5-dioxo-2,3,4,5-tetrahydro-1,2,4-triazine-6-carbonitrile], with < 50 nM; and `Nc1nn(-c2cc(Cl)c(Oc3ccc4c(c3)C3(CC(F)(F)C3)C(=O)N4)c(Cl)c2)c(=O)[nH]c1=O` [Compound 11, 6-amino-2-(3,5-dichloro-4-((3,3-difluoro-2′-oxospiro[cyclobutane-1,3′-indolin]-5′-yl)oxy)phenyl)-1,2,4-triazine-3,5(2H,4H)-dione], with 50 to 250 nM.
As to `Cc1cc(-n2nc(N)c(=O)[nH]c2=O)cc(C)c1Cc1ccc2c(n1)C(C)(C)C(=O)N2` [Compound 12, 6-amino-2-[4-({3,3-dimethyl-2-oxo-1H-pyrrolo[3,2-b]pyridin-5-yl}methyl)-3,5-dimethylphenyl]-4H-1,2,4-triazine-3,5-dione], the half-maximal effective concentration (EC50) lay in the range of 50 to 250 nM.
Then `O=C(O)C(=O)Nc1cc(Cl)c(Oc2ccc3c(c2)C2(CCC2)C(=O)N3)c(Cl)c1` [Compound 13, 2-((3,5-dichloro-4-((2′-oxospiro[cyclobutane-1,3′-indolin]-5′-yl)oxy)phenyl)amino)-2-oxoacetic acid], with < 50 nM; and `O=C(Nc1cc(Cl)c(Oc2ccc3c(c2)C2(CCC2)C(=O)N3)c(Cl)c1)c1noc(=O)[nH]1` [Compound 14, N-(3,5-dichloro-4-((2′-oxospiro[cyclobutane-1,3′-indolin]-5′-yl)oxy)phenyl)-5-oxo-4,5-dihydro-1,2,4-oxadiazole-3-carboxamide], with < 50 nM; and `O=C1Nc2ccc(Oc3c(Cl)cc(-c4n[nH]c(=O)[nH]c4=O)cc3Cl)cc2C12CCC2` [Compound 15, 6-(3,5-dichloro-4-((2′-oxospiro[cyclobutane-1,3′-indolin]-5′-yl)oxy)phenyl)-1,2,4-triazine-3,5(2H,4H)-dione], with < 50 nM.
The value for `Cn1nc(-c2cc(Cl)c(Oc3ccc4c(c3)C3(CCC3)C(=O)N4)c(Cl)c2)c(=O)[nH]c1=O` [Compound 16, 6-(3,5-dichloro-4-((2′-oxospiro[cyclobutane-1,3′-indolin]-5′-yl)oxy)phenyl)-2-methyl-1,2,4-triazine-3,5(2H,4H)-dione] was < 50 nM; that for `Nc1nn(-c2cc(Cl)c(Oc3ccc4c(c3F)C3(CCC3)C(=O)N4)c(Cl)c2)c(=O)[nH]c1=O` [Compound 17, 6-amino-2-(3,5-dichloro-4-((4′-fluoro-2′-oxospiro[cyclobutane-1,3′-indolin]-5′-yl)oxy)phenyl)-1,2,4-triazine-3,5(2H,4H)-dione] was < 50 nM; that for `Cc1c(Oc2c(Cl)cc(-n3nc(N)c(=O)[nH]c3=O)cc2Cl)ccc2c1C1(CCC1)C(=O)N2` [Compound 18, 6-amino-2-(3,5-dichloro-4-((4′-methyl-2′-oxospiro[cyclobutane-1,3′-indolin]-5′-yl)oxy)phenyl)-1,2,4-triazine-3,5(2H,4H)-dione] was < 50 nM.
The value for `Cc1cc2c(cc1Oc1c(Cl)cc(-n3nc(N)c(=O)[nH]c3=O)cc1Cl)C1(CCC1)C(=O)N2` [Compound 19, 6-amino-2-(3,5-dichloro-4-((6′-methyl-2′-oxospiro[cyclobutane-1,3′-indolin]-5′-yl)oxy)phenyl)-1,2,4-triazine-3,5(2H,4H)-dione] was > 25000 nM.
`Cc1cc(OCC(=O)O)c(C)c(C)c1Cc1ccc2c(c1)C1(CC1)C(=O)N2` [Compound 20, 2-(2,3,5-trimethyl-4-((2′-oxospiro[cyclopropane-1,3′-indolin]-5′-yl)methyl)phenoxy)acetic acid]: the EC50 was < 50 nM.
The value for `Nc1nn(-c2cc(Cl)c(Oc3cc(F)c4c(c3)C3(CCC3)C(=O)N4)c(Cl)c2)c(=O)[nH]c1=O` [Compound 21, 6-amino-2-(3,5-dichloro-4-((7′-fluoro-2′-oxospiro[cyclobutane-1,3′-indolin]-5′-yl)oxy)phenyl)-1,2,4-triazine-3,5(2H,4H)-dione] was < 50 nM; that for `O=C(Nc1cc(Cl)c(Oc2ccc3c(c2)C2(CC2)C(=O)N3)c(Cl)c1)c1noc(=O)[nH]1` [Compound 22, N-(3,5-dichloro-4-((2′-oxospiro[cyclopropane-1,3′-indolin]-5′-yl)oxy)phenyl)-5-oxo-4,5-dihydro-1,2,4-oxadiazole-3-carboxamide] was < 50 nM; that for `Cc1c(Oc2c(Cl)cc(NC(=O)c3noc(=O)[nH]3)cc2Cl)ccc2c1C1(CC1)C(=O)N2` [Compound 23, N-(3,5-dichloro-4-((4′-methyl-2′-oxospiro[cyclopropane-1,3′-indolin]-5′-yl)oxy)phenyl)-5-oxo-4,5-dihydro-1,2,4-oxadiazole-3-carboxamide] was < 50 nM.
